{"source": "patent US8865756B2", "about": "“Inhibitors of HCV NS5A” (Presidio Pharmaceuticals, Inc., priority 2008, dated 2014)", "data": [{"test_system": "HCV 1b_Huh-Luc/Neo-ET cell line persistently expressing a bicistronic genotype 1b replicon in Huh 7 cells", "experiment": "HCV replicon assay (luciferase readout)", "format": "cell-based", "settings": "Hepatitis C virus, Huh-7, 72 h, read-out: Inhibition of HCV genotype 1b", "procedure": "Biological activity of the compounds of the invention was determined using an HCV replicon assay. The HCV 1b_Huh-Luc/Neo-ET cell line persistently expressing a bicistronic genotype 1b replicon in Huh 7 cells was obtained from ReBLikon GMBH. This cell line was used to test compound inhibition using luciferase enzyme activity readout as a measurement of compound inhibition of replicon levels.\nOn Day 1 (the day after plating), each compound is added in triplicate to the cells. Plates incubated for 72 h prior to running the luciferase assay. Enzyme activity was measured using a Bright-Glo Kit (cat. number E2620) manufactured by Promega Corporation. The following equation was used to generate a percent control value for each compound. % Control=(Average Compound Value/Average Control)*100\nThe EC50 value was determined using GraphPad Prism and the following equation: Y=Bottom+(Top−Bottom)/(1+10^((Log IC50−X)*HillSlope))\nEC50 values of compounds are determined several times in the replicon assay.\nExample compounds of the disclosed invention are illustrated in Tables 1-14 attached as appendices. The tables show inhibitory activity of many of the example compounds with respect to HCV 1b. […] The tables further provide mass spectrometry results for the synthesized example compounds.", "units": {"EC50": "nM"}, "values": [{"smiles": "CC(C)(C)OC(=O)N[C@@H](C(=O)N1CCC[C@H]1c1ncc(-c2ccc(C#Cc3ccc(-c4cnc([C@@H]5CCCN5C(=O)[C@H](NC(=O)OC(C)(C)C)c5ccccc5)[nH]4)cc3)cc2)[nH]1)c1ccccc1", "note": "[Compound 150]", "EC50": "< 1"}, {"smiles": "CC(C)(C)OC(=O)N[C@@H](C(=O)N1CCC[C@H]1c1ncc(C#Cc2ccc(-c3cnc([C@@H]4CCCN4C(=O)[C@H](NC(=O)OC(C)(C)C)c4ccccc4)[nH]3)cc2)[nH]1)c1ccccc1", "note": "[Compound 99]", "EC50": "< 1"}, {"smiles": "C[C@H]1OC(=O)N[C@@H]1C(=O)N1CCC[C@H]1c1ncc(-c2ccc(C#Cc3ccc(-c4cnc([C@@H]5CCCN5C(=O)[C@H]5NC(=O)O[C@@H]5C)[nH]4)cc3)cc2)[nH]1", "note": "[Compound 979]", "EC50": "10 to 999"}, {"smiles": "C[C@@H]1OC(=O)N[C@H]1C(=O)N1CCC[C@H]1c1ncc(-c2ccc(C#Cc3ccc(-c4cnc([C@@H]5CCCN5C(=O)[C@@H]5NC(=O)O[C@H]5C)[nH]4)cc3)cc2)[nH]1", "note": "[Compound 1000]", "EC50": "10 to 999"}, {"smiles": "COC(=O)N[C@@H](C(=O)N1CCC[C@H]1c1ncc(-c2ccc(C#Cc3ccc(-c4cnc([C@@H]5CCCN5C(=O)[C@H](NC(=O)N5CCS(=O)(=O)CC5)c5ccccc5)[nH]4)cc3)cc2)[nH]1)c1ccccc1", "note": "[Compound 253]", "EC50": "< 1"}, {"smiles": "COC(=O)N[C@@H](C(=O)N1CCC[C@H]1c1ncc(-c2ccc(C#Cc3ccc(-c4cnc([C@@H]5CCCN5C(=O)[C@H](NC(=O)[C@@H]5CCCN5C)c5ccccc5)[nH]4)cc3)cc2)[nH]1)c1ccccc1", "note": "[Compound 203]", "EC50": "< 1"}, {"smiles": "COC(=O)N[C@@H](C(=O)N1CCC[C@H]1c1ncc(-c2ccc(C#Cc3ccc(C(=O)NC[C@@H]4CCCN4C(=O)[C@H](NC(=O)N4CCN(C)CC4)c4ccccc4)cc3)cc2)[nH]1)c1ccccc1", "note": "[Compound 236]", "EC50": "< 1"}, {"smiles": "COC(=O)NC(C(=O)N1CCC[C@H]1c1ncc(-c2ccc(C#Cc3ccc(-c4cnc([C@@H]5CCCN5C(=O)[C@@H](NC(=O)OC)C(C)C)[nH]4)cc3)cc2)[nH]1)[C@@H](C)OC", "note": "(stereo partly shown) [Compound 972]", "EC50": "< 1"}, {"smiles": "CC(C)[C@H](NC(=O)N1CCCC1)C(=O)N1CCC[C@H]1c1ncc(-c2ccc(C#Cc3ccc(-c4cnc([C@@H]5CCCN5C(=O)[C@@H](NC(=O)N5CCCC5)C(C)C)[nH]4)cc3)cc2)[nH]1", "note": "[Compound 288]", "EC50": "> 1000"}, {"smiles": "O=C(N[C@@H](C(=O)N1CCC[C@H]1c1ncc(-c2ccc(C#Cc3ccc(-c4cnc([C@@H]5CCCN5C(=O)[C@@H](c5ccccc5)N5CCCCC5)[nH]4)cc3)cc2)[nH]1)c1ccccc1)N1CCOCC1", "note": "[Compound 209]", "EC50": "< 1"}, {"smiles": "COC(=O)N[C@H](C(=O)N1CCC[C@H]1c1nc2ccc(C#Cc3ccc4nc([C@@H]5CCCN5C(=O)[C@@H](NC(=O)OC)C(C)C)[nH]c4c3)cc2[nH]1)C(C)C", "note": "[Compound 852]", "EC50": "< 1"}, {"smiles": "O=C([C@@H](c1ccccc1)N1CCOCC1)N1CCC[C@H]1c1ncc(-c2ccc(C#Cc3ccc(-c4cnc([C@@H]5CCCN5C(=O)[C@@H](c5ccccc5)N5CCOCC5)[nH]4)cc3)cc2)[nH]1", "note": "[Compound 184]", "EC50": "< 1"}, {"smiles": "COC(=O)N1CCC[C@H]1C(=O)N1CCC[C@H]1c1ncc(-c2ccc(C#Cc3ccc4nc([C@@H]5CCCN5C(=O)[C@@H]5CCCN5C(=O)OC)[nH]c4c3)cc2)[nH]1", "note": "[Compound 1063]", "EC50": "10 to 999"}, {"smiles": "COC(=O)N[C@@H](C(=O)N1CCC[C@H]1c1ncc(-c2ccc(C#Cc3ccc(-c4cnc([C@@H]5CCCN5C(=O)[C@H](NC(=O)N5CCOCC5)c5ccccc5)[nH]4)cc3)cc2)[nH]1)c1ccccc1", "note": "[Compound 224]", "EC50": "< 1"}, {"smiles": "COC(=O)N[C@@H](C(=O)N1CCC[C@H]1c1ncc(-c2ccc(C#Cc3ccc(-c4cnc([C@@H]5CCCN5C(=O)C5CCCN5C)[nH]4)cc3)cc2)[nH]1)c1ccccc1", "note": "(stereo partly shown) [Compound 202]", "EC50": "< 1"}, {"smiles": "CC(C)[C@H](NC(=O)N1CCC(C)(O)CC1)C(=O)N1CCC[C@H]1c1ncc(-c2ccc(C#Cc3ccc(-c4cnc([C@@H]5CCCN5C(=O)[C@@H](NC(=O)N5CCC(C)(O)CC5)C(C)C)[nH]4)cc3)cc2)[nH]1", "note": "[Compound 966]", "EC50": "10 to 999"}]}]}
